Measured values as given in patent publication US20070059824A1, “Human umbilical cord blood-derived pluripotent fibroblast-like-macrophages” (priority 2005, published 2007).

Tests used:
[1] = system: insulin-expressing cells derived from TCB f-MΦ; experiment: Insulin release from insulin-expressing cells derived from TCB f-MΦ (ELISA); assay type: cell-based, human; settings: 1 h
Description: TPO-expanded CB f-MΦ (TCB f-MΦ) cultured in 24-well tissue culture plates (Costar, Corning, N.Y.) at 60-70% confluence was treated for 3 days with 1 μg/ml LPS+25 mM glucose in 1 ml 7% FBS-RPMI 1640 medium per well. TCB f-MΦ cultured in the same concentration of glucose served as control. Insulin release was performed as previously described with minor modifications [F. Schuit, A. De Vos, S. Farfari, K. Moens, D. Pipeleers, T. Brun, M. Prentki, Metabolic fate of glucose in purified islet cells. Glucose-regulated anaplerosis in beta cells, J. Biol. Chem. 272 (1997) 18572-18579; and N. Lumelsky, O. Blondel, P. Laeng, I. Velasco, R. Ravin, R. McKay, Differentiation of embryonic stem cells to insulin-secreting structures similar to pancreatic islets, Science 292 (2001) 1389-1394]. Cells were washed 5 times with PBS to remove the serum and then incubated with Kreb's buffer (120 mM NaCl, 5 mM KCl, 2.5 mM CaCl2, 1.1 mM MgCl2, 25 mM NaHCO3, 0.1% BSA) [N. Lumelsky, O. Blondel, P. Laeng, I. Velasco, R. Ravin, R. McKay, Differentiation of embryonic stem cells to insulin-secreting structures similar to pancreatic islets, Science 292 (2001) 1389-1394] for 30 min in the absence of glucose, at 37° C., 8% CO2 conditions. After removing the Kreb's buffer, cells were incubated with different concentration of glucose (0, 5, 10, and 25 mM) and/or other secretagogues (10 μM tolbudamide (Sigma), 500 μM diazoxide (Sigma), or 25 mM mannite (Sigma) in 300 μl Kreb's buffer/well for 1 h. Each treatment had duplicated wells. Insulin levels were monitored using an ultrasensitive human insulin enzyme-linked immunosorbent assay (ELISA) kit (Alpco Diagnostics, Windham, N.H.) following the manufacturer's protocols. Cell number/well from each treatment was finally quantified for calculating insulin level.

[2] = system: CB f-MΦ; experiment: Immunostaining of TPO-expanded CB f-MΦ for phenotype markers; assay type: cell-based, human
Description: For f-MΦ expansion, the cells at 70% confluence were passaged at ratio 1:2 by pippetting and gently scraping with 100 μl tips (Rainin, Woburn, Mass.). Media were changed every 5-7 days with the fresh RPMI 1640 medium supplemented with 3.5% fetal bovine serum and 5 ng/ml thrombopoietin (TPO).

[3] = system: CB f-MΦ; experiment: Cell proliferation of CB f-MΦ with TPO (CyQUANT Cell Proliferation Assay); assay type: cell-based, human
Description: Therefore, this stage f-MΦ, at ˜80% purity, was selected to examine the effect of TPO. Cells were washed with RPMI 1640 medium three times and then incubated with different concentration of TPO, such as 80, 40, 20, 10, 5, 2.5, 1.25, 0.625, and 0 ng/ml in the 8-well Lab-Tek chamber slides (Nunc, Naperville, Ill.) at 37° C., 8% CO2 conditions. After 4 days, cell proliferation was evaluated using CyQUANT® Cell Proliferation Assay Kit (Molecular Probes, Eugene, Oreg.). Cell fluorescence was measured using a Synergy HT Multi-Detection microplate reader (Bio-Tek Instruments Inc., Winooski, Vt.) equipped with filters for ˜480 nm excitation and ˜520 nm emission. The optical values were analyzed using the manufacturer's software KC4 v3.1.

[4] = system: TCB f-MΦ; experiment: Differentiation of f-MΦ into insulin-expressing cells with LPS and high glucose (immunostaining); assay type: cell-based, human
Source text: The final insulin concentration in the culture medium was 0.196 μU/ml.

[5] = system: TCB f-MΦ; settings: 50 ng/ml VEGF for 5-7 days
Description: The cells were incubated for 20 min at room temperature with 2.5% diluted normal horse serum (Vector Laboratories, Burlingame, Calif.) to block nonspecific staining. Cells were then incubated with primary antibodies, the isotype-matched IgG1κ (BD PharMingen, San Diego, Calif.) (as control for mouse monoclonal antibodies), and normal rabbit serum (as control for rabbit polyclonal antibodies). After staining, the slides were mounted with Mounting Medium (Vector Laboratories, Burlingame, Calif.). Cells were viewed and photographed using a Zeiss LSM 510 META confocal microscope equipped with a 25× water immersion objective (Carl Zeiss Inc.), with Argon 488 nm laser for FITC fluorochrome filtered through LP505.
The TPO-expanded CB f-MΦ was treated with 50 ng/ml VEGF (Cell Sciences Inc., Canton, Mass.) in RPMI-1640 medium supplemented with 7% heat inactivated FBS as previously described [Y. Zhao, D. Glesne, E. Huberman, A human peripheral blood monocyte-derived subset acts as pluripotent stem cells, Proc. Natl. Acad. Sci. U.S.A. 100 (2003) 2426-2431]. After 5-7 days, the treated and untreated cells were prepared for characterizing with endothelial markers, including antibodies to Flt-1, Flk-1, vWF, CD31, and incorporating Dil-Ac-LDL as previously described [D. A. Ingram, L. E. Mead, H. Tanaka, V. Meade, A. Fenoglio, K. Mortell, K. Pollok, M. J. Ferkowicz, D. Gilley, M. C.

[6] = system: Human umbilical cord blood-derived monocytes; experiment: Generation of f-MΦ from cord blood monocytes with M-CSF (morphology, cell counting); assay type: cell-based
Description: Human umbilical cord blood samples (50-100 ml/unit) were obtained from healthy donors (Life-Source Blood Services, Glenview, Ill.). The f-MΦ culture was performed as previously described using human peripheral blood (14). Briefly, purified monocytes were seeded into the 8-Well Lab-Tek II Chamber Slide (Fisher Scientific) at 1×10^5 cells/ml, 0.5 ml/well in RPMI 1640 medium supplemented with 7% fetal bovine serum (Invitrogen, Carlsbad, Calif.) and 50 ng/ml M-CSF. The purity of f-MΦ normally reached 80-90% after incubation for 10-14 days at 37° C., 8% CO2 and was then used for experiments.

[7] = 5 ng/ml TPO, culture for 2 months

CC1=NS(=O)(=O)c2cc(Cl)ccc2N1 [diazoxide]
insulin release ([1]; 500 μM, in the presence of 25 mM glucose): inhibits insulin release

OC[C@@H](O)[C@@H](O)[C@H](O)[C@H](O)CO [mannite]
insulin release ([1]; 25 mM, osmolarity control): failed to stimulate insulin release

CCCCNC(=O)NS(=O)(=O)c1ccc(C)cc1 [tolbutamide]
insulin release ([1]; 10 μM, in the presence of 5 mM glucose): stimulates insulin release

Thrombopoietin [TPO]
CD34 expression, share of cells [2, 7]: ~30%
expression of CD45, CD14, CD163 and CD117 [2, 7]: at the same level as parental CB f-MΦ
expression of platelet and megakaryocyte markers CD41a, CD41b, CD42b ([2]; 4th and 5th passaged cells after TPO expansion): not induced
cell number relative to TPO-untreated CB f-MΦ ([3]; TPO 2.5-5 ng/ml): about 2 times
cell number relative to control monocytes ([3]; TPO 2.5-5 ng/ml): ~10 times
proliferation of CB f-MΦ at higher dosage ([3]; TPO >40 ng/ml): inhibited the proliferation

lipopolysaccharide [LPS]
cells expressing glucagon-like peptide 1 receptor ([4]; CB f-MΦ, 50 ng/ml LPS in the presence of 25 mM glucose for 2 days): around 70%
cells strongly positive for insulin and C-peptide ([4]; LPS 1 μg/ml in the presence of 25 mM glucose): 85-90%

vascular endothelial cell growth factor [VEGF]
expression of endothelial cell-associated markers [5]: significantly expressed Flt-1, Flk-1, vWF, and CD31

B1: macrophage colony-stimulating factor (protein, UniProt P09603 33-554, looked up)
Macrophage colony-stimulating …: EEVSEYCSHMIGSGHLQSLQRLIDSQMETSCQITFEFVDQEQLKDPVCYLKKAFLLVQDIMEDTMRFRDNTPNAIAIVQLQELSLRLKSCFTKDYEEHDKACVRTFYETPLQLLEKVKNVFNETKNLLDKDWNIFSKNCNNSFAECSSQDVVTKPDCNCLYPKAIPSSDPASVSPHQPLAPSMAPVAGLTWEDSEGTEGSSLLPGEQPLHTVDPGSAKQRPPRSTCQSFEPPETPVVKDSTIGGSPQPRPSVGAFNPGMEDILDSAMGTNWVPEEASGEASEIPVPQGTELSPSRPGGGSMQTEPARPSNFLSASSPLPASAKGQQPADVTGTALPRVGPVRPTGQDWNHTPQKTDHPSALLRDPPEPGSPRISSLRPQGLSNPSTLSAQPQLSRSHSSGSVLPLGELEGRRSTRDRRSPAEPEGGPASEGAARPLPRFNSVPLTDTGHERQSEGSFSPQLQESVFHLLVPSVILVLLAVGGLLFYRWRRRSHQEPQRADSPLEQPEGSPLTQDDRQVELPV
notes: Recombinant human macrophage colony-stimulating factor from Sigma
cells elongated ([6]; 50 ng/ml M-CSF for 10-14 days): 80-90%
cell number ([6]; 50 ng/ml M-CSF, FIG. 1): significantly increased the cell number
